# Test results reported in patent US20100016307A1, “NOVEL COMPOUNDS” (priority 2006, published 2010).
# pIC50: −log10 of the molar value.
# Legend:
# [1] = target: T1, human Met Kinase (His6-GST fusion, aa 956-1390) (Homo sapiens, UniProt P08581); experiment: In vitro screen: kinase assay of purified Met kinase; assay type: biochemical; details: purified Met 1 nM, 10 μM ATP, 1 μM peptide substrate, 1 hour at room temperature; read-out: pIC50 values at the c-Met receptor (in vitro screen results) (converted)
# T1 construct: His6 (N); GST (Glutathione-S-Transferase) (N); made in house; host or cells: baculovirus expression system in Sf9 cells
# T1 sequence (P08581 956-1390): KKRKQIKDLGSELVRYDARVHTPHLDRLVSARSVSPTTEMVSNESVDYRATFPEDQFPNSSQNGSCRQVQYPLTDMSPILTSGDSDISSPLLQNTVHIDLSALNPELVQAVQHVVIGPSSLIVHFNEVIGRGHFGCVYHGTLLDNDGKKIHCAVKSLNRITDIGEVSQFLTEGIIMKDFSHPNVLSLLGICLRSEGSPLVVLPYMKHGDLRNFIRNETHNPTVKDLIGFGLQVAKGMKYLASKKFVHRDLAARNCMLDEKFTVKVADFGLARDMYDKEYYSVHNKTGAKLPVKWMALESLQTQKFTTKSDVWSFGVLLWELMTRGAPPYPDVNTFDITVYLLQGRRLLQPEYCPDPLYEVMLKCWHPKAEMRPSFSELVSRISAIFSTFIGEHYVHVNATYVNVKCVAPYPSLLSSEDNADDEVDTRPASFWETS
# Method: The peptide substrate, Biotin-aminohexyl-EEEEYFELVAKKKK-amide was purchased from SynPep Solid sample is dissolved at approximately 2.5 mM in water (concentration determined by amino acid analysis) and aliquots stored at −20° C.
# Met Kinase: A fusion protein consisting of His6-tagged Glutathione-S-Transferase (GST) and amino acid residues 956-1390 of human Met Kinase (aa 956-1390 of Entrez Protein Accession # EAL24359.1 (met proto-oncogene (hepatocyte growth factor receptor) [Homo sapiens])) from “www.ncbi.nlm.nih.gov/entrez/”) is purified from baculovirus expression system in Sf9 cells using Ni chelate column, GSH column, followed by size exclusion chromatography. Purity greater than 90%, estimated by SDS-PAGE, is achieved. Samples in 25 mM HEPES pH 7.5, 100 mM NaCl, 0.1 mM EDTA are stored at −80° C. until use.
# Assays are performed in 96 well (Costar, Catalog No. 3789) or 384 well plates (Costar, Catalog No. 3705). Assay conditions for the peptide phosphorylation reaction (in 10, 20, 25, or 40 μl volume) mix are 100 mM Hepes buffer, pH 7.4; 0.1 mgml^−1 BSA; 5 mM MgCl2; 1 mM DTT; 10 μM ATP; purified Met (1 nM final); and 1 μM peptide substrate. Compounds, titrated in DMSO, are evaluated at concentrations ranging from 50 μM to 0.2 nM. […] Reactions are incubated for 1 hour at room temperature and are stopped by addition of detection reagents containing, at final detection volume, 12.5 mM EDTA; 100 mM Hepes; 0.1 mg/ml BSA; 8 nM Streptavidin APC (Perkin Elmer catalog #CR130-150); 1 nM Europium-labelled anti-phosphotyrosine antibody (Perkin Elmer catalog #AD0067). Under the assay conditions defined above, the Km (apparent) for ATP is determined to be 40 μM.
# The data for compound dose responses were plotted as % Inhibition, calculated with the data reduction formula 100*(1−[(U1−C2)/(C1−C2)]), versus concentration of compound, where U is the unknown value, C1 is the average control value obtained for DMSO, and C2 is the average control value obtained for 0.05M EDTA. Data were fitted to the curve described by: y=((Vmax*x)/(K+x)) where Vmax is the upper asymptote and K is the IC50. The results for each compound were recorded as pIC50 calculated as follows: pIC50=−Log 10(K).
# [2] = target: T2, c-Met/cFms chimeric receptor in c-Met/cFms/NIH3T3 cells (Homo sapiens, UniProt P08581); experiment: Cell-based assay for c-Met autophosphorylation (ELISA); details: compounds 1 h at 37° C., M-CSF (600 ng/ml) stimulation 10 min
# T2 construct: The transmembrane/cytoplasmic domain fragment of c-Met (nucleotides 933 to 1390); expressed in transfected cells; the other entry of the earlier key: CSF1R (P07333, Macrophage colony-stimulating factor 1 receptor)
# T2 sequence (P08581 with tags, fused parts or gaps): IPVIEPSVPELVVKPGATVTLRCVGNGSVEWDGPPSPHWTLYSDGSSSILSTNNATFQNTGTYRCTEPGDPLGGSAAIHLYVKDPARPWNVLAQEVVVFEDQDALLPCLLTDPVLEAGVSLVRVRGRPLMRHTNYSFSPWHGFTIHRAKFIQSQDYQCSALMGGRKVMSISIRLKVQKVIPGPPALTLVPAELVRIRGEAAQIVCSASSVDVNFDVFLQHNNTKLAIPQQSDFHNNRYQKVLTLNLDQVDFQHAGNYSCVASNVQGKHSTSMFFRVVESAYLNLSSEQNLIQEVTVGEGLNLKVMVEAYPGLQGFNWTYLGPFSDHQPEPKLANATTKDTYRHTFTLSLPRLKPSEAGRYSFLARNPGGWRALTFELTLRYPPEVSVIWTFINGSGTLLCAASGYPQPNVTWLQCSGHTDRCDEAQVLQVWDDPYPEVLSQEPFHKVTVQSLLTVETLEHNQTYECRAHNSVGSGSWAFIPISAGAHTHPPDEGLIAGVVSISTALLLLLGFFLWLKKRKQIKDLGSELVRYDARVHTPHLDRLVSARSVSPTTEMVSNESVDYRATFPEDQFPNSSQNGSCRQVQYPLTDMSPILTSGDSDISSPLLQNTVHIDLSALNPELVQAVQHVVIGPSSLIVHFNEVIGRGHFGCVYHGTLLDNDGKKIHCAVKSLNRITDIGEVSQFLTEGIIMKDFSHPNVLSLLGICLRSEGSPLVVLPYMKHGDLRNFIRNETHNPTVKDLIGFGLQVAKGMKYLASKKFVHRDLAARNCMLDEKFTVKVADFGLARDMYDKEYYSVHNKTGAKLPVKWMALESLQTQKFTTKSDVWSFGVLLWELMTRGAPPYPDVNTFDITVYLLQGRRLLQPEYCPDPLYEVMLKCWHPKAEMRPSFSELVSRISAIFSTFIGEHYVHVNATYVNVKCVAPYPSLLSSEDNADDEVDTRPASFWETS
# Excerpt: To generate a chimeric cDNA clone of c-Met with cFms, the extracellular domain of colony stimulating factor 1 receptor (CSF1R encoded by cFms gene) was fused with the transmembrane and cytoplasmic domain of c-Met. Reverse-transcribed RNA from human placenta was used as template to clone c-Met. The transmembrane/cytoplasmic domain fragment of c-Met (nucleotides 933 to 1390) containing a NotI site at both 5′- and 3′-end was generated by polymerase chain reaction (PCR) using following two oligonucleotides;
# The resulting c-Met cDNA was cloned into pCR2.1-TOPO vector (c-Met/pCR2.1-TOPO). The extracellular domain fragment of cFms (nucleotides 1 to 512) containing BamHI site at 5′-end and NotI site at 3′-end was generated from human placenta cDNA by PCR using two oligonucleotides;
# The resulting cFms cDNA was cloned into pcDNA3.1 vector (Invitrogen) using the BamHI and NotI sites (cFms/pcDNA3.1). To generate complete chimeric construct, the c-Met fragment (transmembrane and cytoplasmic domain) was digested with NotI sites (in c-Met/pCR2.1-TOPO vector) and then subcloned into cFms/pcDNA3.1 vector by NotI site (c-Met/cFms/pcDNA3.1).
# NIH3T3 cells were grown in DMEM supplemented with 10% fetal bovine serum. NIH3T3 cells were transfected with c-Met/cFms/pcDNA3.1 vector alone using the calcium phosphate method according to the manufacturer's instructions. Three days after transfection, cells were selected with G418 (0.4 mgml^−1) for 14 days and the expression of c-Met chimeric receptor in the G418-resistant colonies of NIH3T3 (c-Met/cFms/NIH3T3) cells was analyzed by immunoblot. Autophosphorylation of c-Met induced by the stimulation with M-SCF, the ligand for CSF1R, was analyzed by immunoprecipitation and immunoblot, and prominent stable transfectant was selected for c-Met autophosphorylation assay. […]
# c-Met/cFms/NIH3T3 cells were plated at 1×10^5 cells/well in collagen-coated 96-well microtitre plates and grown 24 h under standard culture conditions, followed by serum starvation for 1 h. The cells were incubated with compounds for 1 h at 37° C. and followed by M-CSF (600 ngml^−1) stimulation for 10 min at 37° C. The media was removed and the cells were lysed with 120 ul/well of lysis buffer (20 mM Tris-HCl pH8.0, 137 mM NaCl, 2 mM EDTA, 10% glycerol, 1% Triton X-100, 1 mM Na3VO4 and Protease Inhibitor Cocktail (Complete mini EDTA-free, Roche)). Then 100 ul/well of lysate was transferred to the antibody-coated (50 ng/well goat anti-cFms antibody in PBS) ELISA plate and incubated overnight at 4° C. Plates were washed five times with PBST (PBS containing 0.05% Tween-20). Primary antibody (biotin-conjugated anti-phosphotyrosine monoclonal antibody, PIERCE) was diluted 1:10,000 in PBST containing 1% BSA, added (100 ul/well) and incubated for 2 h at room temperature. After washing the plates five times with washing buffer, 100 ul/well of HRP-conjugated streptavidin (PIERCE) in PBST containing 1% BSA was added and incubated for 30 min at room temperature. After washing five times with PBST, 100 ul/well of SuperSignal ELISA Femto Substrate (PIERCE) was added and incubated for almost 1 min at room temperature. Chemiluminescence was measured using Wallac 1420 multilabel counter.
# The IC50 was determined by using XLfit software (IDBS) with four-parameters, sigmoidal dose-response equation.
smiles,measurement,setting,value
"O=C(NCCO)c1cc2c(Oc3ccc(NC(=O)C4(C(=O)Nc5ccc(F)cc5)CC4)cc3)ccnc2[nH]1 [Example 7, N^1-(4-Fluorophenyl)-N^1-{4-[(2-{[(2-hydroxyethyl)amino]carbonyl}-1H-pyrrolo[2,3-b]pyridin-4-yl)oxy]phenyl}-1,1-cyclopropanedicarboxamide]",IC50,[1],< 10 nM
"COc1ccccc1CNC(=O)c1cc2c(Oc3ccc(NC(=O)C4(C(=O)Nc5ccc(F)cc5)CC4)cc3)ccnc2[nH]1 [Example 12, N^1-(4-Fluorophenyl)-N^1-[4-({2-[({[2-(methyloxy)phenyl]methyl}amino)carbonyl]-1H-pyrrolo[2,3-b]pyridin-4-yl}oxy)phenyl]-1,1-cyclopropane dicarboxamide]",pIC50,[2],5.50 to 6.00
"CS(=O)(=O)CCNC(=O)c1cc2c(Oc3ccc(NC(=O)C4(C(=O)Nc5ccc(F)cc5)CC4)cc3)ccnc2[nH]1 [Example 1, N^1-(4-Fluorophenyl)-N^1-(4-{[2-({[2-(methylsulfonyl)ethyl]amino}carbonyl)-1H-pyrrolo[2,3-b]pyridin-4-yl]oxy}phenyl)-1,1-cyclopropane dicarboxamide]",IC50,[1],< 10 nM
"O=C(NCCN1CCOCC1)c1cc2c(Nc3ccc(NC(=O)C4(C(=O)Nc5ccc(F)cc5)CC4)cc3)ccnc2[nH]1 [Example 19, N^1-(4-Fluorophenyl)-N^1-(4-{[2-({[2-(4-morpholinyl)ethyl]amino}carbonyl)-1H-pyrrolo[2,3-b]pyridin-4-yl]amino}phenyl)-1,1-cyclopropane dicarboxamide]",pIC50,[2],5.50 to 6.00
"NC(=O)CNC(=O)c1cc2c(Oc3ccc(NC(=O)C4(C(=O)Nc5ccc(F)cc5)CC4)cc3)ccnc2[nH]1 [Example 8, N^1-{4-[(2-{[(2-Amino-2-oxoethyl)amino]carbonyl}-1H-pyrrolo[2,3-b]pyridin-4-yl)oxy]phenyl}-N^1-(4-fluorophenyl)-1,1-cyclopropanedicarboxamide]",IC50,[1],< 10 nM
"CN(C)CCCNC(=O)c1cc2c(Oc3ccc(NC(=O)C4(C(=O)Nc5ccc(F)cc5)CC4)cc3)ccnc2[nH]1 [Example 5, N^1-(4-{[2-({[3-(Dimethylamino)propyl]amino}carbonyl)-1H-pyrrolo[2,3-b]pyridin-4-yl]oxy}phenyl)-N^1-(4-fluorophenyl)-1,1-cyclopropane dicarboxamide]",IC50,[1],< 10 nM
O=C(NCCc1c[nH]cn1)c1cc2c(Oc3ccc(NC(=O)C4(C(=O)Nc5ccc(F)cc5)CC4)cc3)ccnc2[nH]1 [Example 9],IC50,[1],< 10 nM
"O=C(Nc1ccc(F)cc1)C1(C(=O)Nc2ccc(Nc3ccnc4[nH]ccc34)cc2)CC1 [Example 15, N^1-(4-Fluorophenyl)-N^1-[4-(1H-pyrrolo[2,3-b]pyridin-4-ylamino)phenyl]-1,1-cyclopropanedicarboxamide]",IC50,[1],100 to 1000 nM
"CN(C)c1ccc(CNC(=O)c2cc3c(Oc4ccc(NC(=O)C5(C(=O)Nc6ccc(F)cc6)CC5)cc4)ccnc3[nH]2)cc1 [Example 11, N^1-[4-({2-[({[4-(Dimethylamino)phenyl]methyl}amino)carbonyl]-1H-pyrrolo[2,3-b]pyridin-4-yl}oxy)phenyl]-N^1-(4-fluorophenyl)-1,1-cyclopropane dicarboxamide]",pIC50,[2],5.50 to 6.00
"CS(=O)(=O)CCNC(=O)c1cc2c(Nc3ccc(NC(=O)C4(C(=O)Nc5ccc(F)cc5)CC4)cc3)ccnc2[nH]1 [Example 21, N^1-(4-Fluorophenyl)-N^1-(4-{[2-({[2-(methylsulfonyl)ethyl]amino}carbonyl)-1H-pyrrolo[2,3-b]pyridin-4-yl]amino}phenyl)-1,1-cyclopropane dicarboxamide]",pIC50,[2],4.50 to 5.50
"O=C(NCCN1CCNCC1)c1cc2c(Oc3ccc(NC(=O)C4(C(=O)Nc5ccc(F)cc5)CC4)cc3)ccnc2[nH]1 [Example 3, N^1-(4-Fluorophenyl)-N^1-(4-{[2-({[2-(1-piperazinyl)ethyl]amino}carbonyl)-1H-pyrrolo[2,3-b]pyridin-4-yl]oxy}phenyl)-1,1-cyclopropane dicarboxamide]",pIC50,[2],5.50 to 6.00
"O=C(NCCc1c[nH]cn1)c1cc2c(Nc3ccc(NC(=O)C4(C(=O)Nc5ccc(F)cc5)CC4)cc3)ccnc2[nH]1 [Example 20, N^1-(4-Fluorophenyl)-N^1-(4-{[2-({[2-(1H-imidazol-4-yl)ethyl]amino}carbonyl)-1H-pyrrolo[2,3-b]pyridin-4-yl]amino}phenyl)-1,1-cyclopropane dicarboxamide]",pIC50,[2],4.50 to 5.50
"O=C(Nc1ccc(F)cc1)C1(C(=O)Nc2ccc(Nc3ccnc4[nH]c(-c5ccccc5)cc34)cc2)CC1 [Example 22, N^1-(4-Fluorophenyl)-N^1-{4-[(2-phenyl-1H-pyrrolo[2,3-b]pyridin-4-yl)amino]phenyl}-1,1-cyclopropanedicarboxamide]",pIC50,[2],4.50 to 5.50
"O=C(NCCN1CCOCC1)c1cc2c(Oc3ccc(NC(=O)C4(C(=O)Nc5ccc(F)cc5)CC4)cc3)ccnc2[nH]1 [Example 4, N^1-(4-Fluorophenyl)-N^1-(4-{[2-({[2-(4-morpholinyl)ethyl]amino}carbonyl)-1H-pyrrolo[2,3-b]pyridin-4-yl]oxy}phenyl)-1,1-cyclopropane dicarboxamide]",IC50,[1],< 10 nM
"CCOC(=O)c1cc2c(Nc3ccc(NC(=O)C4(C(=O)Nc5ccc(F)cc5)CC4)cc3)ccnc2[nH]1 [Example 17, Ethyl 4-[(4-{[(1-{[(4-fluorophenyl)amino]carbonyl}cyclopropyl)carbonyl]amino}phenyl)amino]-1H-pyrrolo[2,3-b]pyridine-2-carboxylate]",pIC50,[2],5.50 to 6.00
"COc1ccccc1NC(=O)c1cc2c(Oc3ccc(NC(=O)C4(C(=O)Nc5ccc(F)cc5)CC4)cc3)ccnc2[nH]1 [Example 13, N^1-(4-Fluorophenyl)-N^1-(4-{[2-({[2-(methyloxy)phenyl]amino}carbonyl)-1H-pyrrolo[2,3-b]pyridin-4-yl]oxy}phenyl)-1,1-cyclopropane dicarboxamide]",pIC50,[2],4.50 to 5.50
